Experimental findings from patent US9540358B2, “Tricyclic compounds as anticancer agents” (ICAHN SCHOOL OF MEDICINE AT MOUNT SINAI, priority 2011, dated 2017) are described below.

For one test, the system named is H1650 lung cancer cells. Briefly: Cell viability assay (MTT, IC50 determination). In kind it is cell-based. The following applies: 48 hours after drug treatment, MTT. As to the method: 89(22): p. […] H1650 lung cancer cells were plated at 150,000 cells per well in a 12 well plate. Twenty-four hours after plating, cells were treated as described with increasing concentrations of drug and control. Forty-eight hours after drug treatment, cells were treated with 100 μL of 3-(4,5-Dimethylthiazol-2-yl)-2,5-diphenyltetrazolium bromide (MTT) and incubated for 2 hours at 37 C. The MTT solution was subsequently replaced with 300 μL of n-propyl alcohol and re-aliquoted to a 96 well plates. Spectrophotometric analysis of each solution was performed using a 96 well plate reader at 600 nm in triplicate.
On to `O=S(=O)(NCCCN1c2ccccc2CCc2ccccc21)c1cnc(Cl)c(Br)c1` [Example 81, 5-bromo-6-chloro-N-(3-(10,11-dihydro-5H-dibenzo[V]azepin-5-yl)propyl)pyridine-3-sulfonamide], for which the “IC50 (Cell Viability Data)” value is recorded as “INACTIVE”. On the same count and under the same terms, the entry for `CC(=O)Nc1nc(C)c(S(=O)(=O)NCCCN2c3ccccc3CCc3ccccc32)s1` [Example 82, N-(5-(N-(3-(10,11-dihydro-5H-dibenzo[b,f]azepin-5-yl)propyl)sulfamoyl)-4-methylthiazol-2-yl)acetamide] is “INACTIVE”; for `COC(=O)NCCN1c2ccccc2Sc2ccc(Cl)cc21` [Example 83] it is “INACTIVE”; for `O=S(=O)(NCCCN1c2ccccc2CCc2ccc(Cl)cc21)c1ccccc1OC(F)(F)F` [Example 86] it is “INACTIVE”.

The same test, now with this note: Homo sapiens, NCI-H1650, 48 hours after drug treatment, MTT.
As to `O=S(=O)(NCC(O)CN1c2ccccc2CCc2ccc(Cl)cc21)c1ccc(Cl)cc1` (centres unmarked) [Example 57, 4-Chloro-N-(3-(3-chloro-10,11-dihydro-5H-dibenzo[b,f]azepin-5-yl)-2-hydroxypropyl)benzenesulfonamide], the IC50 (commonly the concentration that inhibits the measured activity by half) is roughly 10 µM. In turn, `O=S(=O)(NCC(O)CN1c2ccccc2CCc2ccc(Cl)cc21)c1ccc(OC(F)(F)F)cc1` (centres unmarked) [Example 58, 4-Trifluoromethoxy-N-(3-(3-chloro-10,11-dihydro-5H-dibenzo[b,f]azepin-5-yl)-2-hydroxypropyl)benzenesulfonamide] yielded an IC50 of roughly 5 µM.

In turn, `O=S(=O)(NCC(O)CN1c2ccccc2CCc2ccccc21)c1ccc(Cl)cc1` (centres unmarked) [Example 59, 4-Chloro-N-(3-(10,11-dihydro-5H-dibenzo[b,f]azepin-5-yl)-2-hydroxypropyl)benzenesulfonamide] displayed an IC50 of roughly 25 µM.

On to `O=S(=O)(NCCCN1c2ccccc2CCc2ccc(Cl)cc21)c1cc(Cl)c(Cl)s1` [Example 61, 4,5-dichloro-N-(3-(3-chloro-10,11-dihydro-5H-dibenzo[b,f]azepin-5-yl)propyl)thiophene-2-sulfonamide], for which the IC50 is roughly 20 µM. As for `O=S(=O)(NCCCN1c2ccccc2CCc2ccc(Cl)cc21)c1cc(Cl)sc1Cl` [Example 62, 2,5-dichloro-N-(3-(3-chloro-10,11-dihydro-5H-dibenzo[b,f]azepin-5-yl)propyl)thiophene-3-sulfonamide], the IC50 is roughly 25 µM.

For `O=C(CNS(=O)(=O)c1ccc(OC(F)(F)F)cc1)CN1c2ccccc2CCc2ccccc21` [Example 64, N-(3-(10,11-dihydro-5H-dibenzo[b,f]azepin-5-yl)-2-oxopropyl)-4-(trifluoromethoxy)benzenesulfonamide], the 50% inhibitory concentration (IC50) is roughly 35 µM. In the case of `N#CC(CNS(=O)(=O)c1ccc(OC(F)(F)F)cc1)CN1c2ccccc2CCc2ccccc21` (centres unmarked) [Example 65, N-(2-cyano-3-(10,11-dihydro-5H-dibenzo[b,f]azepin-5-yl)propyl)-4-(trifluoromethoxy)benzenesulfonamide], the IC50 is roughly 15 µM. `CC(CNS(=O)(=O)c1ccc(OC(F)(F)F)cc1)CN1c2ccccc2CCc2ccccc21` (centres unmarked) [Example 67, N-(3-(10,11-dihydro-5H-dibenzo[b,f]azepin-5-yl)-2-methylpropyl)-4-(trifluoromethoxy)benzenesulfonamide]: the IC50 was roughly 20 µM. Still for that read-out and setting: the figure for `CC(CNS(=O)(=O)c1ccc(Cl)cc1)CN1c2ccccc2CCc2ccccc21` (centres unmarked) [Example 68, 4-Chloro-N-(3-(10,11-dihydro-5H-dibenzo[b,f]azepin-5-yl)-2-methylpropyl)benzenesulfonamide] is roughly 20 µM.

`O=S(=O)(NCCCN1c2ccccc2CCc2cccc(Cl)c21)c1ccc(OC(F)(F)F)cc1` [Example 69, N-(3-(4-chloro-10,11-dihydro-5H-dibenzo[b,f]azepin-5-yl)propyl)-4-(trifluoromethoxy)benzenesulfonamide] displayed an IC50 of roughly 20 µM. Still for that read-out and setting: to `O=S(=O)(NCCCN1c2ccccc2CCc2cccc(Cl)c21)c1ccc(Cl)cc1` [Example 70, 4-Chloro-N-(3-(4-chloro-10,11-dihydro-5H-dibenzo[b,f]azepin-5-yl)propyl)benzenesulfonamide] belongs roughly 20 µM. Still for that read-out and setting: the figure for `N#Cc1ccc(S(=O)(=O)NCCC=C2c3ccccc3CCc3ccccc32)cc1` [Example 71, N-(3-(10,11-dihydro-5H-dibenzo[a,d][7]annulen-5-ylidene)propyl)-4-cyanobenzenesulfonamide] is 25 µM; for `O=S(=O)(NCCC=C1c2ccccc2CCc2ccccc21)c1ccc(F)cc1` [Example 72, N-(3-(10,11-dihydro-5H-dibenzo[a,d][7]annulen-5-ylidene)propyl)-4-fluorobenzenesulfonamide] it is 20 µM. Same read-out and setting: to `O=S(=O)(NC1CCC(N2c3ccccc3CCc3ccccc32)C1)c1ccc(OC(F)(F)F)cc1` (centres unmarked) [Example 76, N-(3-(10,11-dihydro-5H-dibenzo[b,f]azepin-5-yl)cyclopentyl)-4-(trifluoromethoxy)benzenesulfonamide] belongs 20 µM; to `O=S(=O)(NC1CCCC(=C2c3ccccc3CCc3ccccc32)C1)c1ccc(OC(F)(F)F)cc1` (centres unmarked) [Example 77, N-(3-(10,11-dihydro-5H-dibenzo[a,d][7]annulen-5-ylidene)cyclohexyl)-4-(trifluoromethoxy)benzenesulfonamide], 15 µM; to `O=S(=O)(NC1CCCC(=C2c3ccccc3CCc3ccccc32)C1)c1ccc(Cl)cc1` (centres unmarked) [Example 78, N-(3-(10,11-dihydro-5H-dibenzo[a,d][7]annulen-5-ylidene)cyclohexyl)-4-chlorobenzenesulfonamide], 15 µM.

Molecule `O=S(=O)(NC1CCC(=C2c3ccccc3CCc3ccccc32)CC1)c1ccc(OC(F)(F)F)cc1` (centres unmarked) [Example 79, N-(4-(10,11-dihydro-5H-dibenzo[a,d][7]annulen-5-ylidene)cyclohexyl)-4-(trifluoromethoxy)benzenesulfonamide] yielded an IC50 of roughly 20 µM.

Turning to `O=S(=O)(NC1CCC(=C2c3ccccc3CCc3ccccc32)CC1)c1ccc(Cl)cc1` (centres unmarked) [Example 80, N-(4-(10,11-dihydro-5H-dibenzo[a,d][7]annulen-5-ylidene)cyclohexyl)-4-chlorobenzenesulfonamide], the IC50 was roughly 20 µM.

Take `O=S(=O)(NCC(O)CN1c2ccccc2Sc2ccccc21)c1ccc(OC(F)(F)F)cc1` (centres unmarked) [Example 84]: the IC50 was roughly 25 µM. `O=S(=O)(NCC(O)CN1c2ccccc2Sc2ccccc21)c1ccc(Cl)cc1` (centres unmarked) [Example 85] registered an IC50 of roughly 15 µM. Consider `CS(=O)(=O)Nc1ccc2c(c1)N(CCCNS(=O)(=O)c1ccc(OC(F)(F)F)cc1)c1ccccc1CC2` [Example 87], for which the IC50 is roughly 15 µM. `CC(=O)Nc1ccc(S(=O)(=O)NCCCN2c3ccccc3CCc3ccc(Cl)cc32)cc1` [Example 88] gave an IC50 of roughly 20 µM.
